In patent US7569700B2, “Substituted, bicyclic 8-pyrrolidinobenzimidazoles, methods for their production and their use as medicaments” (sanofi - aventis, priority 2005, dated 2009):

Biological target: T1, DPP-IV from porcine kidneys (Sus scrofa, UniProt P22411)
T1 construct: DPP-IV from porcine kidneys (Sigma, Munich); purchased Sigma, Munich; host or cells: porcine kidney (tissue-derived enzyme)
Test: Measurement of the DPP-IV activity (fluorimetric conversion of H-Ala-Pro-AFC)
Type: biochemical
Settings: at 30 μm compound; DPP-IV 1 mU/ml, H-Ala-Pro-AFC 15 μm, Tris/HCl pH 7.4, room temperature
Protocol: Measurement of the DPP-IV Activity:
DPP-IV from porcine kidneys (Sigma, Munich)
H-Ala-Pro-AFC (Bachem, Weil am Rhein)
DPP-IV (1 mU/ml, end concentration)
H-Ala-Pro-AFC (15 μm end concentration) in Tris/HCl (40 mM, pH 7.4), total volume 0.2 ml
The reaction was performed at room temperature for different periods (typically 10 minutes) and stopped at the end of the reaction by adding 20 μl of ZnCl2 (1 M). The conversion of H-Ala-Pro-AFC was determined fluorimetrically by measuring the emission at 535 nm on excitation at 405 nm. In the case of addition of inhibitors, the buffer volume added was adjusted such that a total volume of the test mixture of 200 μl was maintained.
% inhibition at a fixed concentration was calculated as follows: (1-enzyme activityinhibited reaction/enzyme activityuninhibited reaction)×100

T1 sequence (P22411 whole entry): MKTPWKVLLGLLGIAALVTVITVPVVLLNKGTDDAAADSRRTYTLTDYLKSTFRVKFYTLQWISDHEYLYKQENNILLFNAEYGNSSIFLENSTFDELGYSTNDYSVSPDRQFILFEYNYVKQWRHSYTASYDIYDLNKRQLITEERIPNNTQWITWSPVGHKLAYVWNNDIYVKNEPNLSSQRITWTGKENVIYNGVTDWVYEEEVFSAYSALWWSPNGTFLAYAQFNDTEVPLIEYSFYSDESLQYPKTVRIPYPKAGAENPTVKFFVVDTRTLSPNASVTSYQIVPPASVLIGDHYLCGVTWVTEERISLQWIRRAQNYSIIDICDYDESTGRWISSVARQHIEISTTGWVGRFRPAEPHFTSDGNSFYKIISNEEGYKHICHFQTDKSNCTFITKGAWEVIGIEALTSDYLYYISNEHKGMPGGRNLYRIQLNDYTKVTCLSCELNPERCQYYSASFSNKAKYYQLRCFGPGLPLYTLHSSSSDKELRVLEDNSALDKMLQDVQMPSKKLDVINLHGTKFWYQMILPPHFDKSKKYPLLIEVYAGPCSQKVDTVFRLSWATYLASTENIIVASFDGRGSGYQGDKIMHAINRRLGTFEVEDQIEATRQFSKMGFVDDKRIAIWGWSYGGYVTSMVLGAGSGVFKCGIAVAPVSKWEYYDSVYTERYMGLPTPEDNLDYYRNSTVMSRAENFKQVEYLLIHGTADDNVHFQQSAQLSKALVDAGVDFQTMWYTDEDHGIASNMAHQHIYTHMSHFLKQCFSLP

% inhibition at 30 μm: 25%
Structure (SMILES): CC(C)=CCn1c(N2CCC3CNCC32)nc2ccc(NC(=O)c3ccccc3)cc21 (stereo not shown) [Example 1]
